# Experimental data as given in patent US9277747B2, “Agricultural composition comprising pH sensitive agricultural chemicals and organic pH buffer” (NUTRIAG LTD., priority 2010, dated 2016).
# Legend:
# [1] = known triarylmethane dyes; colour change from lower pH to higher pH; cited from earlier work
# [2] = Storage stability of concentrates at elevated temperatures; settings: pH indicator in agricultural concentrate with carbohydrate acids as pH modifying agent
Structure (SMILES),Range of pH colour transition [1],stability of the pH indicator in the presence of carbohydrate acids / carbohydrate acid mixture [2]
Cc1c(C2(c3cc(Br)c(O)c(Br)c3C)OS(=O)(=O)c3ccccc32)cc(Br)c(O)c1Br [bromocresol green],pH 3.8-5.4,–
Cc1cc(C2(c3cc(C)c(O)c(Br)c3)OS(=O)(=O)c3ccccc32)cc(Br)c1O [bromocresol purple],pH 5.2-6.8,–
O=S1(=O)OC(c2cc(Br)c(O)c(Br)c2)(c2cc(Br)c(O)c(Br)c2)c2ccccc21 [bromophenol blue],pH 3.0-4.6,–
O=S1(=O)OC(c2ccc(O)c(Cl)c2)(c2ccc(O)c(Cl)c2)c2ccccc21 [chlorophenol red],pH 4.8-6.7,low stability
